Source: patent US20170073659A1, “NOVEL LYSYL TRNA SYNTHETASE FRAGMENT AND MICROVESICLES COMPRISING SAME” (Medicinal Bioconvergence Research Center, priority 2014, published 2017)
Residues, ends and D or L forms follow the SMILES beside them. *: point of attachment. Cbz = O=C(OCc1ccccc1)*; CH2F = FC*

Columns and labels:
HCT116 cells [1] = experiment: KRS cleavage in cells (GFP-KRS, western blot with anti-GFP antibody); type: cell-based
Protocol: The cells were lysed with 50 mM Tris-HCl (pH 7.4) buffer containing 150 mM NaCl, 10 mM NaF, 12 mM beta-glycerophosphate, 1 mM EDTA, 1% NP-40, 10% glycerol, and protease inhibiting agent. Then, the supernatant was dissolved in SDS sample buffer, followed by separation using SDS-PAGE. For immunoblotting of endogenous KRS, anti-KRS antibody was used. Antibodies against Hsp90, syntenin-1, GFP, myc, caspase-3, -6, -8, -9, while syntenin-1 were purchased from Santa Cruz, and antibodies against alix were purchased from Cell Signaling. The anti-KRS antibody was manufactured by ordinary procedures in which KRS protein (Genbank Accession No. NP_005539.1) represented by SEQ ID NO: 2 was injected into New Zealand white rabbits to induce immune response and their antibodies were obtained.

HCT116 cells [2] = experiment: KRS secretion test (TCA precipitation, western blot); type: cell-based; conditions: for KRS secretion after caspase inhibitor treatment: HCT116 cells, serum starvation media, inhibitor 14 uM, 12 hr, anti-KRS antibody; for secretion of KRS variant compared with WT: myc-tagged variant transfected into HCT116 cells, serum starvation 12 hr, anti-myc antibody
Protocol: HCT116 cells were incubated in RPMI media containing 10% FBS (Hyclone), and were grown to 60% confluency on 60-mm dish. The cells were washed twice with PBS, incubated in serum-free RPMI media, and treated with 10 ng/ml TNF-α for 12 hr. The supernatant of the cell culture liquid was cautiously collected, followed by centrifugation at 500 g for 10 min. The supernatant thus obtained was again centrifuged at 10,000 g for 30 min, thereby removing membrane organelles. Then, 12% TCA was added to the supernatant, followed by culture at 4° C. for 12 hr, so the supernatant was subjected to precipitation treatment. After the precipitation treatment, the supernatant was centrifuged at 18,000 g for 15 min, and the upper part was then discarded and the remaining pellets were neutralized with 100 mM HEPES (pH 8.0), and then 5× sample buffer was added to perform separation using SDS-PAGE. The products separated by SDS-PAGE were western blotted using anti-KRS antibody.

KRS and syntenin-1 [3] = experiment: Bimolecular fluorescence complementation (BiFC) assay; type: cell-based; conditions: KRS-VN173 and syntenin-1-VC155 transfected cells, serum starvation 4 hr
Protocol: KRS-VN173 plasmid and syntenin-1-VC155 plasmid were all transduced in HCT116 cells, and the cells were incubated in starvation condition or serum-free condition for 4 hr. The HCT116 cells were located on 9-mm coverslip, fixed using 4% paraformaldehyde, and washed shortly with cool PBS. The cells were incubated in 5% BSA blocking buffer for 1 hr, and DAPI stained for 10 min. The cells were washed six times with cool PBS five times for 5 min for each time, and then mounted on slide glass. Thereafter, the samples were observed using confocal laser scanning microscope A1 (Nikon).

HCT116 cells [4] = experiment: KRS exosome secretion (exosomes isolated at 100,000 g, western blot); type: cell-based; conditions: for exosome secretion of KRS variant compared with WT: myc-tagged variant transfected into HCT116 cells, serum starvation 12 hr
Protocol: HCT116 cells were incubated for a predetermined period of time in each treatment condition (especially, serum-starvation condition), and then the media were separated and consecutively centrifuged. Centrifugation was conducted three times at 500 g (10 min), 10,000 g (30 min), and 100,000 g (90 min) to form microvesicle pellets. The amount of microvesicle proteins was determined by using Bradford assay.

KRS and syntenin-1 [5] = experiment: KRS-syntenin-1 interaction by immunoprecipitation and western blot; type: cell-based; conditions: for binding of KRS variant with syntenin-1 compared with WT: myc-tagged variant transfected into cells, immunoprecipitation and western blot
Protocol: For immunoprecipitation, the cells were lysed at 4° C. in 50 mM HEPES (pH 7.4) buffer containing 150 mM NaCl, 0.5% NP-40, 2 mM EDTA, 5% glycerol and protease inhibiting agent (Calbiochem, San Diego, Calif., USA). Protein extracts were cultured together with protein-specific antibodies thereagainst with stirring at 4° C. In addition, protein G agarose was added. 4 hr after the addition of the protein G agarose, precipitate samples were obtained by centrifugation. The precipitate samples were washed three times for 5 min using cool lysis buffer. The precipitates were separated by SDS-PAGE.

RAW264.7 cells [6] = experiment: TNF-alpha secretion ELISA assay; type: cell-based; conditions: RAW 264.7 cells; 100 nM KRS proteins or KRS exosomes 0.05, 0.5, 5 ug
Protocol: RAW264.7 cells (2×10^4) were incubated in 24-well plate containing DMEM supplemented with 10% FBS and 1% antibiotic for 12 hr, and starved in serum starvation media for 2 hr. 100 nM KRS protein (WT, ▴N12 each) and KRS exosomes (0.05, 0.5, 5 ug) were added, followed by treatment for 6 hr. Thereafter, cell media were collected by centrifugation at 3,000 g for 5 min. TNF-alpha secreted from the cells was detected using the TNF-alpha ELISA kit (Pharmingen, BD Science) according to the manufacturer's protocol.

Cytokine activity of KRS = conditions: WT compared with N-terminus truncated KRS
RAW264.7 cells [7] = experiment: Wound healing assay; type: cell-based; conditions: RAW 264.7 monolayer; 100 nM KRS proteins or KRS exosomes 0.05, 0.5, 5 ug; 12 hr
Protocol: RAW264.7 cells were dispensed on the coverslip, and grown to >95% confluency. Subsequently, the RAW 264.7 monolayer was scratched to create wounds, and then the wounds were treated with 100 nM KRS proteins (WT, ▴N12) or KRS exosomes (0.05, 0.5, 5 ug) in their respective concentrations, followed by incubation for 12 hr. The cell morphology of cells was observed using microscopy.

RAW264.7 cells [8] = experiment: Luminex screening assays (bead-based multiplex kits); type: cell-based; conditions: 100 nM KRS proteins or KRS exosomes 5 ug/ml; 12 hr
Protocol: RAW264.7 cells were incubated in 12-well plate using DMEM media containing 10% FBS and 1% antibiotic for 12 hr, and starved in serum starvation media for 2 hr. KRS proteins (WT, ▴N12 each) and KRS exosomes (5 ug) in different amounts were respectively added to the media. After 12 hr, conditioned media were collected, and spun down through centrifugation at 3,000 g for 10 min. For multiplex assay, premixed beads for TNF-alpha, mCRG-2, IL-6, mIL-lbeta, mIL-12, mIL-10, MMP9, INF-gamma, mMIP3a, and CXCL10 were purchased from R&D Science, and used according to the manufacturer's protocol. Each sample were analyzed by BioRad Bioplex 200 system and software.

## COC(=O)C[C@H](NC(=O)[C@H](C)NC(=O)[C@@H](NC(=O)OCc1ccccc1)C(C)C)C(=O)CF [pan-caspase inhibitor, Z-VAD-FMK] (Cbz-Val-Ala-Asp(OMe)-CH2F)
HCT116 cells [1]; GFP-KRS overexpressed cells, serum starvation media, Z-VAD-FMK 14 uM, 1 hr
  KRS cleavage after caspase inhibitor treatment: reduced
HCT116 cells [2]
  KRS secretion after caspase inhibitor treatment: reduced

## D12A mutant: variant in which Asp, 12th amino acid of KRS WT, is replaced with Ala; not cleaved by caspase-8
KRS and syntenin-1 [3]
  BiFC fluorescence (KRS-syntenin binding): not observed
HCT116 cells [1]; GFP-KRS variant overexpressed in HCT116 cells, serum starvation 1 hr
  cleavage of KRS variant compared with WT: reduced
HCT116 cells [4]
  exosome secretion of KRS variant compared with WT: significantly reduced
HCT116 cells [2]
  secretion of KRS variant compared with WT: reduced
KRS and syntenin-1 [5]
  binding of KRS variant with syntenin-1 compared with WT: less

## KRS WT: full-length human lysyl tRNA synthetase (1-597), SEQ ID NO: 2
RAW264.7 cells [6]
  TNF-alpha secretion from macrophages: increasing TNF-alpha secretion
Cytokine activity of KRS
  cytokine activity: identical
RAW264.7 cells [7]
  migration of macrophages (wound-healing assay): increased
RAW264.7 cells [8]
  secretion of IL-6 from macrophages: induced
  secretion of MMP9 from macrophages: induced
  secretion of TNF-alpha from macrophages (luminex): induced
  secretion of mCRG-2 from macrophages: induced

## Z-VAD-DQMD [caspase-3 inhibitor]
HCT116 cells [2]
  KRS secretion after caspase inhibitor treatment: only caspase-8 inhibitor inhibited KRS secretion

## Z-VAD-IETD [caspase-8 inhibitor]
KRS and syntenin-1 [3]
  BiFC fluorescence (KRS-syntenin binding): not observed
HCT116 cells [2]
  KRS secretion after caspase inhibitor treatment: inhibited KRS secretion
KRS and syntenin-1 [5]; serum starvation medium with or without caspase-8 inhibiting agent, IP of syntenin-1, anti-KRS western blot
  binding between KRS and syntenin increased by starvation: reduced

## Z-VAD-VEID [caspase-6 inhibitor]
HCT116 cells [2]
  KRS secretion after caspase inhibitor treatment: only caspase-8 inhibitor inhibited KRS secretion

## si-KRS: si-RNA against KRS from Invitrogen: GGGAAGACCCAUACCCACACAAGUU, AACUUGUGUGGGUAUGGGUCUUCCC (chemistry not given here)
HCT116 cells [4]; exosomes purified from si-RNA treated cells, 48 hr then serum starvation 12 hr, vs si-con
  KRS proteins existing in the exosome: reduced

## ▴N12: KRS fragment 13-597 a.a., the peptide of SEQ ID NO: 1, first 12 N-terminal amino acids deleted
RAW264.7 cells [6]
  TNF-alpha secretion from macrophages: increasing TNF-alpha secretion
Cytokine activity of KRS
  cytokine activity: identical
RAW264.7 cells [7]
  migration of macrophages (wound-healing assay): increased
RAW264.7 cells [8]
  secretion of IL-6 from macrophages: induced
  secretion of MMP9 from macrophages: induced
  secretion of TNF-alpha from macrophages (luminex): induced
  secretion of mCRG-2 from macrophages: induced

## ▴c5: deletion mutant KRS with truncated C-terminus, 1-592 a.a of SEQ ID NO: 2
HCT116 cells [4]
  exosome secretion of KRS variant compared with WT: reduced
HCT116 cells [2]
  secretion of KRS variant compared with WT: less
KRS and syntenin-1 [5]
  binding of KRS variant with syntenin-1 compared with WT: significantly deteriorated
